Test results taken from patent US20070269570A1, “FLAVONOID SUGAR ADDITION PRODUCTS, METHOD FOR MANUFACTURE AND USE THEREOF” (priority 2006, published 2007).

Tests used:
Assay type in all cases: in vivo, human
[1] = Triangle test of taste modification of theobromine solution; details: for taste: compared with theobromine reference; for % of panellists who detected a difference: eight panelists; for taste intensity: theobromine reference bitterness 5.0
Excerpt: To investigate the influence of taste modification of (−)-catechin-8-C-β-D-glucopyranoside on theobromine in comparison to the aglycons (+)-catechin and (−)-epicatechin as well as further C-glycosides like apigenin-8-C-β-D-glucopyranoside (vitexin) and apigenin-6-C-β-D-glucopyranoside (isovitexin), theobromine (3 mmol/L) was spiked with different concentrations of (−)-catechin-8-C-β-D-glucopyranoside, (+)-catechin, (−)-epicatechin as well as apigenin-8-C-β-D-glucopyranoside (vitexin) and apigenin-6-C-β-D-glucopyranoside (isovitexin).

[2] = Sensory tasting in alkalized cocoa powder drink; details: for sensory evaluation of bitterness versus control: 50 ppm added (ppm refer to 1 kg of water), 8 persons
Procedure: The modified product of example 6 was further compared to alkalized cocoa powder (5 g/200 ml)+50 ppm Epicat-6-C-Glc (ppm refer to 1 kg of water).
The modified product of example 6 was further compared to alkalized cocoa powder (5 g/200 ml)+50 ppm Cat-6,8-C-di-Glc (ppm refer to 1 kg of water).
The examples were repeated with the catechin and epicatechin galactosides and the same sensory results were obtained.

[3] = Sensory tasting in non-alkalized cocoa powder drink; details: 50 ppm added
[4] = Sensory tasting against grape seed extract; details: ca. 10 ppm added to 2000 ppm grape seed extract
[5] = Sensory tasting against pure theobromine; details: ca. 10 ppm added to 600 ppm theobromine
Excerpt: Theobromine (600 ppm)+ca. 10 ppm 8-C-glucosylated catechin.

[6] = Sensory tasting in astringent dark chocolate; details: 77 mg of 7.8% solution in propylene glycol per 20 g dark chocolate
Procedure: 77 mg of a solution of catechin-8-C-glucoside dissolved in propylene glycol (7.8%) was added to 20 g of molten dark chocolate with strong astringent taste characteristics. After solidification, the chocolate was tasted against a non-treated reference chocolate.
Food ingredients were prepared starting from green tea extract (5 g) or grape seed extract (5 g) by reaction with glucose (4 g) and 3% K2C03 in 100 ml of water. The reaction was done at 80° C. for exactly 20 min. The resulting flavour reaction mix was freeze-dried to obtain a dark red-brown mass which was then added to astringent tasting chocolate at various levels. In a first screening sensory tasting, the optimum level of addition was identified as 300 ppm.
Ingredients prepared from grape seed extract and tea extract in such a manner when added to dark chocolate at 330 ppm decreased the perceived sensory perception of astringency in the dark chocolate.

Row | SMILES | taste ([1]; 2.2 μmol/L added) | % of panellists who detected a difference ([1]; 2.2 μmol/L added) [%] | taste intensity ([1]; 2.2 μmol/L added) | taste ([1]; 22.2 μmol/L added) | % of panellists who detected a difference ([1]; 22.2 μmol/L added) [%] | taste intensity ([1]; 22.2 μmol/L added) | taste ([1]; 222/L μmol/L added) | % of panellists who detected a difference ([1]; 222/L μmol/L added) [%] | taste intensity ([1]; 222/L μmol/L added) | sensory evaluation of bitterness versus control [2] | other results
1 | Oc1cc(O)c2c(c1)O[C@H](c1ccc(O)c(O)c1)[C@@H](O)C2 [(+)-catechin] | bitterness | 0 | 5.0 | more cocoa like | 50 | 5.0 | more cocoa like | 50 | bitterness (4.0) |  | 
2 | OC[C@H]1O[C@@H](c2c(O)cc3c(c2O)C[C@@H](O)[C@@H](c2ccc(O)c(O)c2)O3)[C@H](O)[C@@H](O)[C@@H]1O [Epicat-6-C-Glc, (−)-epicatechin-6-C-β-D-glucopyranoside] |  |  |  |  |  |  |  |  |  | lower maximum bitterness intensity than control, a flatter bitterness profile and a “softer” bitterness quality | 
3 | O=c1cc(-c2ccc(O)cc2)oc2c([C@@H]3O[C@H](CO)[C@@H](O)[C@H](O)[C@H]3O)c(O)cc(O)c12 [vitexin, apigenin-8-C-β-D-glucopyranoside] |  |  |  |  | 0 | 5.0 |  | 50 | 4.5 |  | % of panellists who detected a difference ([1]; 2 μmol/L added): 0%; taste intensity ([1]; 2 μmol/L added): 5.0
4 | O=c1cc(-c2ccc(O)cc2)oc2cc(O)c([C@@H]3O[C@H](CO)[C@@H](O)[C@H](O)[C@H]3O)c(O)c12 [isovitexin, apigenin-6-C-β-D-glucopyranoside] | bitterness | 0 | 5.0 | bitterness | 0 | 5.0 | bitterness | 50 | 4.5 |  | 
5 | OC[C@H]1O[C@@H](c2c(O)cc(O)c3c2O[C@@H](c2ccc(O)c(O)c2)[C@H](O)C3)[C@H](O)[C@@H](O)[C@@H]1O [(−)-catechin-8-C-β-D-glucopyranoside] | softer, more | 10 | (4.5) | softer, more pleasant | 50 | less bitter (3.5) | softer, more pleasant | 100 | less bitter (1.0) |  | taste perception versus reference without addition ([2]; 50 ppm added, 5 persons): less bitter and less astringent; taste perception versus reference without addition [3]: milder and less astringent; astringency versus reference of grape seed extract [4]: decrease in astringency; bitterness intensity compared to pure theobromine [5]: did not a perceive a decrease in bitterness intensity; timing of bitterness perception compared to pure theobromine [5]: delay in bitterness perception; astringency versus non-treated reference chocolate [6]: lower; bitterness versus non-treated reference chocolate [6]: remained unchanged; tasters who noticed a "smoothing out" effect [6]: 4 of 5
6 | Oc1cc(O)c2c(c1)OC(c1ccc(O)c(O)c1)C(O)C2 (single isomer, unassigned; (-)) [(−)-epicatechin] | bitterness | 0 | 5.0 | more cocoa like | 50 | 5.0 | more cocoa like | 50 | bitterness (4.0) |  | 
7 | OCC1OC(c2c(O)c3c(c(C4OC(CO)C(O)C(O)C4O)c2O)OC(c2ccc(O)c(O)c2)C(O)C3)C(O)C(O)C1O (single isomer, unassigned; (-)) [Cat-6,8-C-di-Glc, (−)-cat-echin-6-C-8-C-β-D-diglucopyranoside] |  |  |  |  |  |  |  |  |  | lower maximum bitterness intensity than control, a flatter bitterness profile and a “softer” bitterness quality | 
8 | OC[C@H]1O[C@@H](c2c(O)cc3c(c2O)C[C@@H](O)[C@H](c2ccc(O)c(O)c2)O3)[C@H](O)[C@@H](O)[C@@H]1O [Cat-6-C-Glc, (−)-catechin-6-C-β-D-glucopyranoside] |  |  |  |  |  |  |  |  |  | lower maximum bitterness intensity than in the control sample, a flat bitterness profile and a “softer bitterness quality | 
